Results as given in US11180504B2 (ORCHID PHARMA LTD., priority 2016, dated 2021).
Values after ≈ are worked out from the molar mass of the structure shown. Like-named read-outs stand apart in the source and are kept apart here.

How the values were obtained:
[1] = test system: carbapenemase producing K. pneumoniae; test: MIC by broth micro-dilution (CLSI), carbapenemase producing K. pneumoniae; format: cell-based, Klebsiella pneumoniae
[2] = test system: methicillin-sensitive Staphylococcus aureus; test: MIC by broth micro-dilution (CLSI), methicillin-sensitive S. aureus; format: cell-based; settings: MSSA S. aureus ATCC29213
[3] = test system: carbapenem sensitive Escherichia coli; test: MIC by broth micro-dilution (CLSI), carbapenem sensitive E. coli; format: cell-based
[4] = test system: carbapenem sensitive Pseudomonas aeruginosa; test: MIC by broth micro-dilution (CLSI), carbapenem sensitive P. aeruginosa; format: cell-based
[5] = Klebsiella pneumoniae, ATCCBAA1705, KPC-2 K. pneumoniae ATCC BAA-1705, read-out: MIC
[6] = Staphylococcus aureus, ATCC 29213 / MSSA, read-out: MIC
[7] = Escherichia coli, ATCC25922, ESBL −ve E. coli ATCC25922, read-out: MIC
[8] = Pseudomonas aeruginosa, ATCC27853, Meropenem susceptible P. aeruginosa ATCC27853, read-out: MIC
[9] = KPC-2 K. pneumoniae ATCC BAA-1705
[10] = Meropenem susceptible P. aeruginosa ATCC27853

Row | Compound | MIC [1, 5] [µg/mL] | MIC [2, 6] [µg/mL] | MIC [3, 7] [µg/mL] | MIC [4, 8] [µg/mL] | MIC [1, 9] [µg/mL] | MIC [2] [µg/mL] | MIC ([3]; ESBL −ve E. coli ATCC25922) [µg/mL] | MIC [4, 10] [µg/mL]
1 | C[C@@H](NC(=O)Cn1cnnn1)[C@H]1C(=O)N2C(C(=O)O)=C(S[C@@H]3CN[C@H](C(=O)N4CCC[C@H](N)C4)C3)[C@H](C)[C@H]12 [Example 341, (4R,5S,6R)-6-((R) - 1-(2-(1H-tetrazol-1-yl)acetamido)ethyl)-3-((3S,5S)-5-((S)-3-aminopiperidin-1-carbonyl)pyrrolidin-3-ylthio)-4-methyl-7-oxo-1-azabicycio[3.2.0]hept-2-ene-2-carboxylic acid] | 4 (≈ 7.3 µM) | 4 (≈ 7.3 µM) | 1 (≈ 1.83 µM) | 8 (≈ 14.6 µM) | – | – | – | –
2 | C[C@@H](NC(=O)Cn1cnnn1)[C@H]1C(=O)N2C(C(=O)O)=C(S[C@@H]3CN[C@H](C(=O)N4CCN(C(=N)N)CC4)C3)[C@H](C)[C@H]12 [Example 367, (4R,5S,6R)-6-((R)-1-(2-(1H-tetrazol-1-yl)acetamido)ethyl)-3-((3S,5S)-5-(4-carbamimidoylpiperazine-1-carbonyl)pyrrolidin-3-ylthio)-4-methyl-7-oxo-1-azabicyclo[3.2.0]hept-2-ene-2-carboxylic acid] | 2 (≈ 3.47 µM) | 2 (≈ 3.47 µM) | 0.25 (≈ 0.434 µM) | 1 (≈ 1.74 µM) | – | – | – | –
3 | C[C@@H](NC(=O)[C@@H](N)Cn1ncnn1)[C@H]1C(=O)N2C(C(=O)O)=C(S[C@@H]3CN[C@H](C(=O)N(C)C)C3)[C@H](C)[C@H]12 [Example 323, (4R,5S,6R)-6-((R) - 1-((S)-2-amino-3-(2H-tetrazol-2-yl)propanamido)ethyl)-3-((3S,5S)-5-(dimethylcarbamoyl)pyrrolidin-3-ylthio)-4-methyl-7-oxo-1-azabicyclo[3.2.0]hept-2-ene-2-carboxylic acid] | 8 (≈ 15.3 µM) | 16 (≈ 30.7 µM) | 2 (≈ 3.83 µM) | > 128 | – | – | – | –
4 | C[C@@H](NC(=O)[C@H]1CS(=O)(=O)CN1)[C@H]1C(=O)N2C(C(=O)O)=C(S[C@@H]3CN[C@H](C(=O)N(C)C)C3)[C@H](C)[C@H]12 [Example 284] | 4 (≈ 7.55 µM) | 1 (≈ 1.89 µM) | 1 (≈ 1.89 µM) | 64 (≈ 121 µM) | – | – | – | –
5 | C[C@@H](NC(=O)Cn1cnnn1)[C@H]1C(=O)N2C(C(=O)O)=C(S[C@@H]3CN[C@H](C(=O)N4CCC(F)(CN)CC4)C3)[C@H](C)[C@H]12 [Example 346, (4R,5S,6R)-6-((R) - 1-(2-(1H-tetrazol-1-yl)acetamido)ethyl)-3-((3S,5S)-5-(4-(aminomethyl)-4-fluoropiperidine-1-carbonyl)pyrrolidin-3-ylthio)-4-methyl-7-oxo-1-azabicyclo[3.2.0]hept-2-ene-2-carboxylic acid] | 8 (≈ 13.8 µM) | 16 (≈ 27.6 µM) | 1 (≈ 1.73 µM) | 16 (≈ 27.6 µM) | – | – | – | –
6 | C[C@@H](NC(=O)Cn1cncn1)[C@H]1C(=O)N2C(C(=O)O)=C(S[C@@H]3CN[C@H](C(=O)N(C)C)C3)[C@H](C)[C@H]12 [Example 300, (4R,5S,6R)-6-((R) - 1-(2-(1H-1,2,4-triazol-1-yl)acetamido)ethyl)-3-((3S,5S)-5-(dimethylcarbamoyl)pyrrolidin-3-ylthio)-4-methyl-7-oxo-1-azabicyclo[3.2.0]hept-2-ene-2-carboxylic acid] | 4 (≈ 8.14 µM) | 16 (≈ 32.5 µM) | 1 (≈ 2.03 µM) | 128 (≈ 260 µM) | – | – | – | –
7 | CNCC(=O)N[C@H](C)[C@H]1C(=O)N2C(C(=O)O)=C(S[C@@H]3CN[C@H](C(=O)N4CC[C@H](N)C[C@@H]4C)C3)[C@H](C)[C@H]12 [Example 264] | 4 (≈ 7.65 µM) | 16 (≈ 30.6 µM) | 2 (≈ 3.83 µM) | 8 (≈ 15.3 µM) | – | – | – | –
8 | C[C@@H](NC(=O)C(F)F)[C@H]1C(=O)N2C(C(=O)O)=C(S[C@@H]3CN[C@H](C(=O)N(C)Cc4cc(=O)c(O)cn4C)C3)[C@H](C)[C@H]12 [Example 243] | 32 (≈ 54.8 µM) | 32 (≈ 54.8 µM) | 16 (≈ 27.4 µM) | > 128 | – | – | – | –
9 | C[C@@H](NC(=O)Cn1nnnc1-c1cccs1)[C@H]1C(=O)N2C(C(=O)O)=C(S[C@@H]3CN[C@H](C(=O)N(C)C)C3)[C@H](C)[C@H]12 [Example 357, (4R,5S,6R)-3-((3S,5S)-5-(dimethylcarbamoyl)pyrrolidin-3-ylthio)-4-methyl-7-oxo-6-((R)-1-(2-(5-(thiophen-2-yl)-1H-tetrazol-1-yl)acetamido)ethyl)-1-azabicyclo[3.2.0]hept-2-ene-2-carboxylic acid] | 32 (≈ 55.7 µM) | 2 (≈ 3.48 µM) | 1 (≈ 1.74 µM) | > 128 | – | – | – | –
10 | CNCC(=O)N[C@H](C)[C@H]1C(=O)N2C(C(=O)O)=C(SCCn3cc(O)c(=O)cc3CN)[C@H](C)[C@H]12 [Example 257] | 16 (≈ 33.4 µM) | > 128 | 4 (≈ 8.34 µM) | 128 (≈ 267 µM) | – | – | – | –

Continued, values first:

Row | MIC [1, 5] [µg/mL] | MIC [2, 6] [µg/mL] | MIC [3, 7] [µg/mL] | MIC [4, 8] [µg/mL] | MIC [1, 9] [µg/mL] | MIC [2] [µg/mL] | MIC ([3]; ESBL −ve E. coli ATCC25922) [µg/mL] | MIC [4, 10] [µg/mL] | Compound
11 | 2 (≈ 3.58 µM) | 16 (≈ 28.6 µM) | 0.25 (≈ 0.448 µM) | 16 (≈ 28.6 µM) | – | – | – | – | C[C@@H](NC(=O)Cn1cnnn1)[C@H]1C(=O)N2C(C(=O)O)=C(S[C@@H]3CN[C@H](C(=O)N4CC(N)(CC#N)C4)C3)[C@H](C)[C@H]12 [Example 424, (4R,5S,6R)-6-((R)-1-(2-(1H-tetrazol-1-yl)acetamido)ethyl)-3-((3S,5S)-5-(3-amino-3-(cyanomethyl)azetidine-1-carbonyl)pyrrolidin-3-ylthio)-4-methyl-7-oxo-1-azabicyclo[3.2.0]hept-2-ene-2-carboxylic acid]
12 | 1 (≈ 1.83 µM) | 4 (≈ 7.33 µM) | 0.25 (≈ 0.458 µM) | 1 (≈ 1.83 µM) | – | – | – | – | C[C@@H](NC(=O)Cn1cnnn1)[C@H]1C(=O)N2C(C(=O)O)=C(S[C@@H]3CN[C@H](C(=O)N4CC5CNC5C4)C3)[C@H](C)[C@H]12 (single isomer, unassigned) [Example 590]
13 | – | – | – | – | 1 (≈ 1.74 µM) | 2 (≈ 3.49 µM) | 0.125 (≈ 0.218 µM) | 1 (≈ 1.74 µM) | C[C@@H](NC(=O)Cn1cnnn1)[C@H]1C(=O)N2C(C(=O)O)=C(S[C@@H]3CN[C@H](C(=O)N4CCC5CNCC5C4)C3)[C@H](C)[C@H]12 (single isomer, unassigned) [Example 534]
14 | 2 (≈ 3.54 µM) | 4 (≈ 7.07 µM) | 0.25 (≈ 0.442 µM) | 8 (≈ 14.1 µM) | – | – | – | – | C[C@@H](NC(=O)Cn1cnnn1)[C@H]1C(=O)N2C(C(=O)O)=C(S[C@@H]3CN[C@H](C(=O)N4C[C@@H](N)C[C@H]4CF)C3)[C@H](C)[C@H]12 [Example 491, (4R,5S,6R)-6-((R)-1-(2-(1H-tetrazol-1-yl)acetamido)ethyl)-3-((3S,5S)-5-((2S,4S)-4-amino-2-(fluoromethyl)pyrrolidine-1-carbonyl)pyrrolidin-3-ylthio)-4-methyl-7-oxo-1-azabicyclo[3.2.0]hept-2-eoe-2-carboxylic acid]
15 | 1 (≈ 1.73 µM) | 8 (≈ 13.8 µM) | 0.25 (≈ 0.431 µM) | 4 (≈ 6.9 µM) | – | – | – | – | C[C@@H](NC(=O)Cn1cnnn1)[C@H]1C(=O)N2C(C(=O)O)=C(S[C@@H]3CN[C@H](C(=O)N4C[C@@H](O)[C@H](N)[C@H]4CO)C3)[C@H](C)[C@H]12 [Example 548, (4R,5S,6R)-6-((R)-1-(2-(1H-tetrazol-1-yl)acetamido)ethyl)-3-((3S,5S)-5-((2S,3R,4R)-3-amino-4-hydroxy-2-(hydroxymethyl)pyrrolidine-1-carbonyl)pyrrolidin-3-ylthio)-4-methyl-7-oxo-1-azabicyclo[3.2.0]hept-2-ene-2-carboxylic acid]
16 | – | – | – | – | 0.5 (≈ 0.812 µM) | 1 (≈ 1.62 µM) | 0.125 (≈ 0.203 µM) | 1 (≈ 1.62 µM) | C[C@@H](NC(=O)Cn1cnnn1)[C@H]1C(=O)N2C(C(=O)O)=C(S[C@@H]3CN[C@H](C(=O)N4CCC5CN(C(=N)N)CCC54)C3)[C@H](C)[C@H]12 (single isomer, unassigned) [Example 560]
17 | 2 (≈ 3.57 µM) | 4 (≈ 7.15 µM) | 0.5 (≈ 0.893 µM) | 4 (≈ 7.15 µM) | – | – | – | – | C[C@@H](NC(=O)Cn1cnnn1)[C@H]1C(=O)N2C(C(=O)O)=C(S[C@@H]3CN[C@H](C(=O)N4CCC5CNCC54)C3)[C@H](C)[C@H]12 (single isomer, unassigned) [Example 466]
18 | 4 (≈ 6.19 µM) | 16 (≈ 24.8 µM) | 0.5 (≈ 0.774 µM) | 16 (≈ 24.8 µM) | – | – | – | – | C[C@@H](NC(=O)Cn1cnnn1)[C@H]1C(=O)N2C(C(=O)O)=C(S[C@@H]3CN[C@H](C(=O)N4C[C@H](N)C[C@H]4C(=O)N4CC[C@@H](N)C4)C3)[C@H](C)[C@H]12 [Example 447, (4R,5S,6R)-6-((R)-1-(2-(1H-tetrazol-1-yl)acetamido)ethyl)-3-((3S,5S)-5-((2S,4R)-4-amino-2-((R)-3-aminopyrrolidine-1-carbonyl)pyrrolidine-1-carbonyl)pyrrolidin-3-ylthio)-4-methyl-7-oxo-1-azabicyclo[3.2.0]hept-2-ene-2-carboxylic acid]
19 | – | – | – | – | 4 (≈ 7.88 µM) | 8 (≈ 15.8 µM) | 1 (≈ 1.97 µM) | >128 | C[C@@H](NC(=O)C(N)C(F)(F)F)[C@H]1C(=O)N2C(C(=O)O)=C(S[C@@H]3CN[C@H](C(=O)N(C)C)C3)[C@H](C)[C@H]12 (stereo partly drawn) [Example 389, (4R,5S,6R)-6-((1R)-(2-amino-3,3,3-trifluoropropanamido)ethyl)-3-((3S,5S)-5-(dimethylcarbamoyl)pyrrolidin-3-ylthio)-4-methyl-7-oxo-1-azabicyclo[3.2.0]hept-2-ene-2-carboxylic acid]
20 | 4 (≈ 7.24 µM) | 32 (≈ 57.9 µM) | 4 (≈ 7.24 µM) | 4 (≈ 7.24 µM) | – | – | – | – | CNCC(=O)N[C@H](C)[C@H]1C(=O)N2C(C(=O)O)=C(S[C@@H]3CN[C@H](C(=O)N4C[C@@H](O)[C@H](NC(=N)N)C4)C3)[C@H](C)[C@H]12 [Example 588, (4R,5S,6R)-3-((3S,5S)-5-((3R,4R)-3-guanidino-4-hydroxypyrrolidine-1-carbonyl)pyrrolidin-3-ylthio)-4-methyl-6-((R)-1-(2-(methylamino)acetamido)ethyl)-7-oxo-1-azabicyclo[3.2.0]hept-2-ene-2-carboxylic acid]
